Measured values reported in patent publication US20030092686A1, “Method of determining the initial dose of vitamin D compounds” (priority 2000, published 2003).

Test system: adult ESRD patients
Assay: Double-blind, randomized, 12-week trial of starting dose of paricalcitol injection (baseline PTH/80 vs 0.04 mcg/kg)
Format: in vivo, human
Settings: for Incidences of Ca × P > 75: 2 consecutive occurrences of CaxP>75; for Median Number of Dose Adjustments: adjustments to achieve the first of 4 consecutive ≧30% decreases from baseline PTH; for Incidence(s) of Hypercalcemia: single episode, Ca>11.5 miligram/deciliter, 3x weekly, 12-week trial; for Median Days to First of 4 ≧ 30% PTH Decreases: statistically significant (P = 0.0306)
Procedure: A double-blind, randomized, 12-week trial was conducted in 125 adult ESRD patients to determine if a starting dose of paricalcitol injection using baseline PTH/80 was equivalent in the rate of hypercalcemia (single episode, Ca>11.5 miligram/deciliter) compared to the approved initial dose (0.04 mcg/kg, dry weight). Patients were randomized (1:1) to doses by either PTH/80 or 0.04 mcg/kg. Baseline demographics and laboratory values were similar between groups. Dosing occurred 3×weekly per patient hemodialysis schedule. Dose increases of 2 mcg could occur once per 2 weeks; decreases of 2 mcg could occur once per week. Patients completed the study by reducing PTH≧30% from baseline for 4 consecutive weekly measurements, or by having a single incidence of hypercalcemia, or by completing 12 weeks of treatment. The primary analysis was a comparison of the incidence of hypercalcemia between groups. Secondary analyses included the time in days to the first of 4 consecutive≧30% decreases from baseline PTH levels, the difference in the number of dose adjustments to achieve the first of 4 consecutive≧30% decreases from baseline PTH levels, and the difference in the incidence rates of 2 consecutive occurrences of CaxP>75.

[1] = initial dose 0.04 mcg/kg dry weight

C[C@H](/C=C/[C@H](C)C(C)(C)O)[C@H]1CC[C@H]2/C(=C/C=C3C[C@@H](O)C[C@H](O)C3)CCC[C@]12C [paricalcitol injection, Paricalcitol]
Mean PTH Decrease (SE) [1]: −193 (24.59) pg/mL | Incidences of Ca × P > 75 [1]: 2 | Median Number of Dose Adjustments [1]: 3 | Incidence(s) of Hypercalcemia [1]: 0 | Median Days to First of 4 ≧ 30% PTH Decreases [1]: 45 days | Mean PTH Decrease (SE) (initial dose baseline PTH/80): −259 (24.01) pg/mL | Incidences of Ca × P > 75 (initial dose baseline PTH/80): 5 | Median Number of Dose Adjustments (initial dose baseline PTH/80): 2 | Incidence(s) of Hypercalcemia (initial dose baseline PTH/80): 0 | Median Days to First of 4 ≧ 30% PTH Decreases (initial dose baseline PTH/80): 31 days
